Results reported in US20110034407A1, “USE OF SPHINGOMYELIN AND NON-DIGESTIBLE CARBOHYDRATES FOR IMPROVING INTESTINAL MICROBIOTA” (N. V. Nutricia, priority 2007, published 2011).

Columns and labels:
Bifidobacteria = assay: Faecal fermentation in dialysis tubes, FISH with Bifl 64 probe; format: cell-based; details: t = 72 h versus t = 0
Description: (§1) Pooled fresh faeces obtained from 4-5 healthy adults was used to perform fermentation studies as described in Appendix I of WO 2004/000340. The experiments were performed in duplo. The faeces, diluted 1:5 into McBain and Farlane medium, was put into dialysis tubes and suspended in bottles with buffer under anaerobic conditions and was first incubated at 37° C. for 16 h for reasons of adaptation before inoculating them with the substrates according to the table below at t=0.
(§2) The test substrates were added once a day (at t=0, 24, and 48 hours). Buffer was refreshed once a day. A sample was taken at t=0 and t=72. This relatively long period was used since shifts in bacterial populations are relatively slow compared to the shifts in short chain acids formed.
(§3) The sphingosine was dissolved in ethanol (stock 10 mg/ml). 30 μl of a stock of 10 mg/ml was added to the dialysis tube.
(§4) The samples were analysed by Fluorescence In Situ Hybridisation (FISH) as described in Franks, A. H., et al., Appl. Environ. Microbiol., 1998. 64(9): p. […] Total number of bacteria was determined by DAPI staining. The ratio Firmicutes/Bacteroidetes was set at the percentage of bacteria detected by the Chis150, Clit135, Erec482 and Lab158 probe, divided by the percentage of bacteria […] by the Bac303 probe. The bacteria detected by the Erec482 group are usually the largest group of Firmicutes in the human intestine.

[1] = system: Eubacterium rectale and Clostridium coccoides group; assay: Faecal fermentation in dialysis tubes, FISH with Erec482 probe; format: cell-based; details: t = 72 h versus t = 0
Description: as §1, §2, §3, §4

Compound: CCCCCCCCCCCCC/C=C/[C@@H](O)[C@@H](N)CO [Number 1, D-sphingosine]
- change in bifidobacteria (in words) (Bifidobacteria): increase
- change in Clostridia and Eubacteria, largest group of intestinal Firmicutes (in words) [1]: decrease
